Earlier results on two molecules are cited in patent US20050031668A1, “Implantable polymeric device for sustained release of nalmefene” (priority 2003, published 2005).

Experiment in data set [1]: not given
The source holds these as a separate data set.

The conditions of data set [2]: in vivo.
Experiment in data set [3]: not given
This is another data set of the same source.

For data set [4] the following is noted: in vivo. This is another data set of the same source.

Take `C=C1CC[C@@]2(O)[C@H]3Cc4ccc(O)c5c4[C@@]2(CCN3CC2CC2)[C@H]1O5` [nalmefene]: where the note is “20 or 80 mg/day orally”, the nausea result was “Transient nausea” and the serious adverse events result is recorded as “no serious adverse events occurred”. In addition, for the setting “20 or 80 mg/day orally, twelve weeks”, the “proportion of nalmefene patients who relapsed” value is listed as “One-third”. Moreover, the “relapse to heavy drinking versus placebo” value (20 or 80 mg/day orally, twelve-week study, 105 alcoholic patients) is reported as “Fewer patients receiving nalmefene relapsed to heavy drinking”. For the same molecule, the “number of abstinent days and self-reported craving” value (treated versus control groups) is “the same in treated and control groups”. Moreover, the “rate of relapse compared with placebo or 10 mg nalmefene” value in data set [1] (40 mg oral, 21 alcohol-dependent patients) is “significantly lower rate of relapse”. In addition, in data set [1] (40 and 10 mg doses), the “number of drinks per drinking day” value is “significantly decreased”. In the data set with μ, δ, and κ receptors, the agonist activity entry is “no agonist activity”; the “opioid receptors acted on” value is “acts on μ, δ, and κ receptors”. In data set [2], the “efficacy in animal models of alcoholism” value is recorded as “effective”. The half-life entry in data set [3] (compared with naltrexone) was “longer half-life”. Besides, the serious adverse effects entry in data set [3] (in vivo) is reported as “no serious adverse effects”.

For `O=C1CC[C@@]2(O)[C@H]3Cc4ccc(O)c5c4[C@@]2(CCN3CC2CC2)[C@H]1O5` [naltrexone], in the data set with μ, δ, and κ receptors, the “opioid receptors acted on” value is recorded as “primarily blocks μ receptors”. Also, in data set [4], the “limitations of use: hepatotoxicity” value is “dose-dependent hepatotoxic side effects” and the “limitations of use: nausea” value is recorded as “intolerable nausea”.
